This is an account of results in patent US7951954B2, “Bezothiazol derivatives as Beta2 adrenoreceptor agonists” (AstraZeneca AB, priority 2006, dated 2011).

Each structure is given as a SMILES string. Counter-ions that a name gives are not always drawn. Like-named read-outs stand apart in the source and are kept apart here.

In one experiment the target is T1, Adrenergic β2 (Homo sapiens, UniProt P07550).
T1 construct: endogenous in cells; host or cells: H292 cells
In words: Adrenergic β2 mediated cAMP production in H292 cells (AlphaScreen cAMP detection). In kind it is cell-based. Particulars: for EC50: cAMP production in H292 cells, 300 μM rolipram, 10 minutes with compound, read-out: β2 pEC50 (converted). As for the experimental part: Adrenergic β2 Mediated cAMP Production
H292 cells were grown in RPMI (Roswell Park Memorial Institute) medium containing, 10% (v/v) FBS (foetal bovine serum) and 2 mM L-glutamine. Cells were grown in 225 cm2 flasks containing 25 mL media in a humidified incubator at 37° C., 5% CO2. Cells were harvested from the flask and passaged at a 1 in 10 dilution once per week.
The media from flasks containing H292 cells was removed, rinsed with 10 mL PBS phosphate buffered saline) and replaced with 10 mL Accutase™ cell detachment solution. Flasks were incubated for 15 minutes in a humidified incubator at 37° C., 5% CO2. The cell suspension was counted and the cells re-suspended in RPMI media (containing 10% (v/v) FBS and 2 mM L-glutamine) at 0.05×10^6 cells per mL. 5000 cells in 100 μL were added to each well of a tissue-culture-treated 96-well plate and the cells incubated overnight in a humidified incubator at 37° C., 5% CO2. The culture media was removed, washed twice with 100 μL assay buffer and replaced with 50 μL assay buffer. Cells were rested at room temperature for 20 minutes after which time 25 μL of rolipram (1.2 mM made up in assay buffer containing 2.4% (v/v) dimethylsulphoxide) was added. Cells were incubated with rolipram for 10 minutes after which time test compounds (made up as ×4 concentrated stocks in assay buffer containing 4% (v/v) dimethylsulphoxide) were added and the cells were incubated for 10 minutes at room temperature. Final rolipram concentration in the assay was 300 μM and final vehicle concentration was 1.6% (v/v) dimethylsulphoxide. The reaction was stopped by removing supernatants, washing once with 100 μL assay buffer and replacing with 50 μL lysis buffer. The cell monolayer was frozen at −80° C. for 30 minutes (or overnight).
The concentration of cAMP (cyclic adenosine monophosphate) in the cell lysate was determined using the AlphaScreen™ methodology. The frozen cell plate was thawed for 20 minutes on a plate shaker then 10 μL of the cell lysate was transferred to a 96-well white plate. 40 μL of mixed AlphaScreen™ detection beads (containing equal volumes of donor beads (pre-incubated with biotinylated cAMP in the dark for 30 minutes) and acceptor beads), was added to each well and the plate incubated at room temperature for 10 hours in the dark. The AlphaScreen™ signal was measured using an EnVision spectrophotometer (Perkin-Elmer Inc.) with the recommended manufacturer's settings. cAMP concentrations were determined by reference to a calibration curve determined in the same experiment using standard cAMP concentrations (made up in lysis buffer in a 96-well tissue-culture-treated plate and frozen/thawed alongside the test samples) and detected using the same protocol. Concentration response curves for agonists were constructed to determine both the pEC50 and Intrinsic Activity.
For orientation: cAMP levels reflect the balance of adenylyl cyclase and phosphodiesterase activity.

Experiment [1] deals with T2, recombinant human α1D receptor (Homo sapiens, UniProt P25100).
T2 construct: expressed in transfected cells; host or cells: HEK293
T2 sequence (P25100 1-572): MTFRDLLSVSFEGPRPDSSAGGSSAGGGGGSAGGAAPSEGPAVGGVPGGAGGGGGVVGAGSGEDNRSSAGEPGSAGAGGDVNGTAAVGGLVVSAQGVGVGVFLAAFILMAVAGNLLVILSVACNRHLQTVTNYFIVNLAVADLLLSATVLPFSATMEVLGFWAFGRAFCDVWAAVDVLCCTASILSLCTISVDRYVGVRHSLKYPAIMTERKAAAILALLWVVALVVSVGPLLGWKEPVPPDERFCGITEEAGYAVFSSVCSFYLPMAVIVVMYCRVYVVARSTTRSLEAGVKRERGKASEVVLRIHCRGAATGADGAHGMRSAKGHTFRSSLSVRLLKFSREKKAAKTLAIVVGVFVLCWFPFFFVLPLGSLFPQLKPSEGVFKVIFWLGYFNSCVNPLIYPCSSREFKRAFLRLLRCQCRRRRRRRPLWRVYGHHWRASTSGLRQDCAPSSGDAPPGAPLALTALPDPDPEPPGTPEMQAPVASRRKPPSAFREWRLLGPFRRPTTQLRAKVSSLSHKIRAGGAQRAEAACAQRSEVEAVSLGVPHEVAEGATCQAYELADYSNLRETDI
In words: Adrenergic α1D selectivity assay, [3H]-prazosin binding to HEK293 membranes. Particulars: inhibition of [3H]-prazosin binding, HEK293 membranes with recombinant human α1D; read-out: α1D pEC50 (converted). As for the experimental part:
These were diluted in Assay Buffer (50 mM HEPES, 1 mM EDTA, 0.1% gelatin, pH 7.4) to provide a final concentration of membranes that gave a clear window between maximum and minimum specific binding.
Assays were performed in U-bottomed 96-well polypropylene plates. […] For each assay plate 8 replicates were obtained for [^3H]-prazosin binding in the presence of 10 μL vehicle (10% (v/v) DMSO in Assay Buffer; defining maximum binding) or 10 μL BMY7378 (10 μM final concentration; defining non-specific binding (NSB)). Membranes were then added to achieve a final volume of 100 μL. The plates were incubated for 2 hours at room temperature and then filtered onto PEI coated GF/B filter plates, pre-soaked for 1 hour in Assay Buffer, using a 96-well plate Tomtec cell harvester. Five washes with 250 μL wash buffer (50 mM HEPES, 1 mM EDTA, pH 7.4) were performed at 4° C. to remove unbound radioactivity. The plates were dried then sealed from underneath using Packard plate sealers and MicroScint-O (50 μL) was added to each well. The plates were sealed (TopSeal A) and filter-bound radioactivity was measured with a scintillation counter (TopCount, Packard BioScience) using a 3-minute counting protocol.
(§1) Total specific binding (B0) was determined by subtracting the mean NSB from the mean maximum binding. NSB values were also subtracted from values from all other wells.

In experiment [2] the target is T3, recombinant human adrenergic beta 1 receptors (Homo sapiens, UniProt P08588).
T3 construct: purchased Euroscreen
T3 sequence (P08588 whole entry): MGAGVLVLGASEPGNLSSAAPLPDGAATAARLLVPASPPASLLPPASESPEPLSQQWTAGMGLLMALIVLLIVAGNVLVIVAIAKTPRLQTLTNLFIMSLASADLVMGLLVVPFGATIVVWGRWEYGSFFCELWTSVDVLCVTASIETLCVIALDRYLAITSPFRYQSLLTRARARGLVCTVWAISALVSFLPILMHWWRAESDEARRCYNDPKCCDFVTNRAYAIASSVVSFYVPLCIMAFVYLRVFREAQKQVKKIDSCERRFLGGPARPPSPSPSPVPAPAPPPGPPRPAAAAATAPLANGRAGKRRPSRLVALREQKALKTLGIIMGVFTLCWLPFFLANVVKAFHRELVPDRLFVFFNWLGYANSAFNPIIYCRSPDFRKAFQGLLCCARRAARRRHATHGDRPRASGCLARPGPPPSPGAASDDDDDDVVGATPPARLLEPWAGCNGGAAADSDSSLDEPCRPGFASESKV
The experiment is described as follows: Adrenergic β1 selectivity assay, [125I]-Iodocyanopindolol binding to membranes. Particulars: inhibition of [125I]-Iodocyanopindolol binding, read-out: β1 pEC50 (converted). As to the method: Membranes containing recombinant human adrenergic beta 1 receptors were obtained from Euroscreen. These were diluted in Assay Buffer (50 mM HEPES, 1 mM EDTA, 120 mM NaCl, 0.1% gelatin, pH 7.4) to provide a final concentration of membranes that gave a clear window between maximum and minimum specific binding.
Assays were performed in U-bottomed 96-well polypropylene plates. 10 μL [^125I]-Iodocyanopindolol (0.036 nM final concentration) and 10 μL of test compound (10× final concentration) were added to each test well. For each assay plate 8 replicates were obtained for [^125I]-Iodocyanopindolol binding in the presence of 10 μL vehicle (10% (v/v) DMSO in Assay Buffer; defining maximum binding) or 10 μL Propranolol (10 μM final concentration; defining non-specific binding (NSB)). Membranes were then added to achieve a final volume of 100 μL. The plates were incubated for 2 hours at room temperature and then filtered onto PEI coated GF/B filter plates, pre-soaked for 1 hour in Assay Buffer, using a 96-well plate Tomtec cell harvester. Five washes with 250 μL wash buffer (50 mM HEPES, 1 mM EDTA, 120 mM NaCl, pH 7.4) were performed at 4° C. to remove unbound radioactivity. The plates were dried then sealed from underneath using Packard plate sealers and MicroScint-O (50 μL) was added to each well. The plates were sealed (TopSeal A) and filter-bound radioactivity was measured with a scintillation counter (TopCount, Packard BioScience) using a 3-minute counting protocol.
as §1

T1 sequence (P07550 whole entry): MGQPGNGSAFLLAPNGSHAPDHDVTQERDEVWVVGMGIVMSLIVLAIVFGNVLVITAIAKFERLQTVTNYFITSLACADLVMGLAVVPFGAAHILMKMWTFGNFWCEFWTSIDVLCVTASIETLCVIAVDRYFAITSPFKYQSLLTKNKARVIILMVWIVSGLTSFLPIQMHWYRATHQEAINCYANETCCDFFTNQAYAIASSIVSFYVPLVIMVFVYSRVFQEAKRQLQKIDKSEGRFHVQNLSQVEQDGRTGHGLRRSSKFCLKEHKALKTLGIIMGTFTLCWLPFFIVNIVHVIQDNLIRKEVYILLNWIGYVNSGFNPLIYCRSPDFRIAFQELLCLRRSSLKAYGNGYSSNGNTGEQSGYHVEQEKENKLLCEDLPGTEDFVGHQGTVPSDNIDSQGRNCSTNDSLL

For the molecule `O=c1[nH]c2c(O)ccc([C@@H](O)CNCCc3cccc(CNCc4ccccc4Cl)c3)c2s1` [Example 3, 7-[2-(2-{3-[(2-Chloro-benzylamino)-methyl]-phenyl}-ethylamino)-1R-hydroxy-ethyl]-4-hydroxy-3H-benzothiazol-2-one bis-trifluoroacetate salt], at Adrenergic β2, the “Intrinsic Activity” value is given as 0.9. Also, the EC50 in experiment [1] is 158 nM; in experiment [2], 10 nM.
The corresponding values for `COc1ccccc1CNCCc1cccc(CCNC[C@H](O)c2ccc(O)c3[nH]c(=O)sc23)c1` [Example 45, 4-Hydroxy-7-[1R-hydroxy-2-(2-{3-[2-(2-methoxy-benzylamino)-ethyl]-phenyl}-ethylamino)-ethyl]-3H-benzothiazol-2-one bis-hydrochloride salt] are 1.0, 25.1 nM and 63.1 nM.
`COCCNCc1cccc(CCNC[C@H](O)c2ccc(O)c3[nH]c(=O)sc23)c1` [Example 13, 4-Hydroxy-7-[1R-hydroxy-2-(2-{3-[(2-methoxy-ethylamino)-methyl]-phenyl}-ethylamino)-ethyl]-3H-benzothiazol-2-one di-hydrochloride salt]: the “Intrinsic Activity” value on Adrenergic β2 is on record as 1.0. The EC50 was 2 nM on Adrenergic β2, 501 nM in experiment [1] and 158 nM in experiment [2].
Take `CC(C)OCCCNCc1cccc(CCNC[C@H](O)c2ccc(O)c3[nH]c(=O)sc23)c1` [Example 64, 4-Hydroxy-7-[1R-hydroxy-2-(2-{3-[(3-isopropoxy-propylamino)-methyl]-phenyl}-ethylamino)-ethyl]-3H-benzothiazol-2-one bis-hydrochloride salt]: the EC50 at Adrenergic β2 is 0.794 nM; in experiment [1], 398 nM; in experiment [2], 501 nM. The “Intrinsic Activity” value at Adrenergic β2 (fraction relative to the maximum activity determined for formoterol in each experiment, H292 cells, cAMP) is 0.8.
